# Source: article PMC11243685, “Synthesis and Enzymatic Evaluation of a Small Library of Substituted Phenylsulfonamido-Alkyl Sulfamates towards Carbonic Anhydrase II” (Molecules, 2024)
# How the values were obtained:
# [1] = target: T1, bovine carbonic anhydrase II (Bos taurus, UniProt P00921); assay: Enzymatic assay of bCA II inhibition, absorbance at 415 nm; assay type: biochemical; conditions: bCA II; 1 μM concentration of the inhibitor; triplicate with three technical replicas;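 further: enzyme is carbonic anhydrase II isolated from bovine erythrocytes, with its activity followed photometrically at 415 nm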
# T1 construct: carbonic anhydrase II (bCAII, ≥3000 W-A units/mg from bovine erythrocytes) from Sigma; purchased Sigma (Taufkirchen, Germany); host or cells: isolated from bovine erythrocytes
# T1 sequence (P00921 whole entry): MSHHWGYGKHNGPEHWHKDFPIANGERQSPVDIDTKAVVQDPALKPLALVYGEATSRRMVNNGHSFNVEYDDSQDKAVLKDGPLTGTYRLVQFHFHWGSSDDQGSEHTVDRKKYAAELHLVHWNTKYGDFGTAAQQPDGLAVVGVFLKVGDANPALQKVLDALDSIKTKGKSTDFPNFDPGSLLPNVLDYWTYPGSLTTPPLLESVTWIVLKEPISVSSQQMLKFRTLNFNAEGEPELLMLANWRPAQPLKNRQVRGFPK
# Experimental: The enzymatic assays have been performed with carbonic anhydrase II (bCAII, ≥3000 W-A units/mg from bovine erythrocytes) from Sigma (Taufkirchen, Germany) using a BMG Labtech Spectrostar Omega apparatus (BMG Labtech, Ortenberg, Germany) measuring λ = 415 nm. Conditions have been described previously [72]. Ki and Ki′ values were determined from Lineweaver–Burk, Dixon and Cornish Bowden plots, respectively.
inhibition at 1 µM [1] [%],melting point [°C],Structure (SMILES)
36.1 ± 1.8,94 to 96,"NS(=O)(=O)OCCCCCCCCCNS(=O)(=O)c1ccc(C23CC4CC(CC(C4)C2)C3)cc1 [78b, 9-[(4-(Adamantan-1-yl)phenyl)sulfonamido]nonyl Sulfamate]"
40.1 ± 0.8,87 to 89,"NS(=O)(=O)OCCCCCCCCCCNS(=O)(=O)c1ccc(C23CC4CC(CC(C4)C2)C3)cc1 [79b, 10-[(4-(Adamantan-1-yl)phenyl)sulfonamido]decyl Sulfamate]"
